According to article PMC6199744, “Development of Chemical Proteomics for the Folateome and Analysis of the Kinetoplastid Folateome” (ACS Infectious Diseases, 2018):
Read-outs that look alike come from different tables or passages of the source.

Assays:
Format in all cases: binding
[1] = molecular target: T1, HeLa cell extract proteins (Homo sapiens, UniProt P49336)
T1 construct: endogenous in cells; host or cells: HeLa cell extract

[2] = molecular target: T2, HeLa cell extract proteins (Homo sapiens, UniProt P06703)
T2 construct: endogenous in cells; host or cells: HeLa cell extract

[3] = molecular target: T3, HeLa cell extract proteins (Homo sapiens, UniProt Q9UH17)
T3 construct: endogenous in cells; host or cells: HeLa cell extract
T3 sequence (Q9UH17 whole entry): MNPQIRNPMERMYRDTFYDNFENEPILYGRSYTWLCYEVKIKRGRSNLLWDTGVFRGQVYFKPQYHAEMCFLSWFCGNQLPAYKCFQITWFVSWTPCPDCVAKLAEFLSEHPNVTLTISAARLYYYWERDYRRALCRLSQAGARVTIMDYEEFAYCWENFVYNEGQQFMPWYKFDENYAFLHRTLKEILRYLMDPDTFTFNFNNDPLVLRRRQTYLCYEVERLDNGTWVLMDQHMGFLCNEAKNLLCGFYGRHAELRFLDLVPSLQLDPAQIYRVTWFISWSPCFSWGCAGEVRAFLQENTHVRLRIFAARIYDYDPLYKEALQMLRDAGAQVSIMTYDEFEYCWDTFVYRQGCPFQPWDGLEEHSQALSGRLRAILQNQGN

[4] = molecular target: T4, HeLa cell extract proteins (Homo sapiens, UniProt Q53R41)
T4 construct: endogenous in cells; host or cells: HeLa cell extract
T4 sequence (Q53R41 1-847): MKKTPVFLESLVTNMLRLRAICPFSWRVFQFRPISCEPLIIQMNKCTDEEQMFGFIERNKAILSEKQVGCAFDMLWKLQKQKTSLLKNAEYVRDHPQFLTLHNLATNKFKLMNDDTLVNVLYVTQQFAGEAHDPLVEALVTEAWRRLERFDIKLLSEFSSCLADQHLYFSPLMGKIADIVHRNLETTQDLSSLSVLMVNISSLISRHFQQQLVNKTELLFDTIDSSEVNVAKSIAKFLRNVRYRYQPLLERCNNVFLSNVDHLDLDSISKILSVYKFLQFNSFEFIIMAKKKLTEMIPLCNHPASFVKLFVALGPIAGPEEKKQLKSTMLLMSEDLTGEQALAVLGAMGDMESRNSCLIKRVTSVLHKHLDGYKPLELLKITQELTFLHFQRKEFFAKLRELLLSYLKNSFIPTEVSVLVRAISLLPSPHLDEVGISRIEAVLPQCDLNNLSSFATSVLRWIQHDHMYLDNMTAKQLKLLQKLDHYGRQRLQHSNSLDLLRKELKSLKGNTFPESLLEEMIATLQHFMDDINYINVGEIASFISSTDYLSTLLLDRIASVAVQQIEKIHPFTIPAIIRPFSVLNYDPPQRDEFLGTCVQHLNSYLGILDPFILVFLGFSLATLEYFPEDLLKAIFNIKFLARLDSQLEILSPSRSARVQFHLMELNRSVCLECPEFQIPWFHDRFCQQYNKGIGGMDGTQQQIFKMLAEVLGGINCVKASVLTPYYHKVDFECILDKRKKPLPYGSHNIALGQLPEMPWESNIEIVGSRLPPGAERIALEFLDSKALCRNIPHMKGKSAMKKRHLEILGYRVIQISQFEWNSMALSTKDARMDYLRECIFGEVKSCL

[5] = molecular target: T5, HeLa cell extract proteins (Homo sapiens, UniProt Q5H9R7)
T5 construct: endogenous in cells; host or cells: HeLa cell extract
T5 sequence (Q5H9R7 1-873): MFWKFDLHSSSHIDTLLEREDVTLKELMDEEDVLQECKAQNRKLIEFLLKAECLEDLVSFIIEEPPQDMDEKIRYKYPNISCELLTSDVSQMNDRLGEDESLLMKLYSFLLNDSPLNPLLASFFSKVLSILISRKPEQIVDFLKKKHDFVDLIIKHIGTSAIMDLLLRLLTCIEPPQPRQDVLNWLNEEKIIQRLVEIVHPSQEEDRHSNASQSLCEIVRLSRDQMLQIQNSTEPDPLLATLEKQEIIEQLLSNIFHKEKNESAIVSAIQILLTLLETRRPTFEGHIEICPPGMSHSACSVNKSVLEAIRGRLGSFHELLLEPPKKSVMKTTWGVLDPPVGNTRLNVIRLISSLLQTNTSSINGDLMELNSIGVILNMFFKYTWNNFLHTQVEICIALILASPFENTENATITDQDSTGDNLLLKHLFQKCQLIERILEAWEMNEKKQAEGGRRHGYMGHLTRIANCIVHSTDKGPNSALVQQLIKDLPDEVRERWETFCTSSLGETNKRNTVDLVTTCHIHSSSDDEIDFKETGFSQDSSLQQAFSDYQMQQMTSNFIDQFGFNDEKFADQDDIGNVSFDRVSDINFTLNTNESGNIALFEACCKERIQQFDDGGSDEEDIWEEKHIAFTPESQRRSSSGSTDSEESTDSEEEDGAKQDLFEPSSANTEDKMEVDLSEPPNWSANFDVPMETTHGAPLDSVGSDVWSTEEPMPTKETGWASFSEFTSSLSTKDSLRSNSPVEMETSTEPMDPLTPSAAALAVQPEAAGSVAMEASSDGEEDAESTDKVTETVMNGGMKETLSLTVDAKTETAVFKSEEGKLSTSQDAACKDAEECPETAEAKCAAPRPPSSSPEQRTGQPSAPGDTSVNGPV

[6] = molecular target: T6, HeLa cell extract proteins (Homo sapiens, UniProt Q9UNK9)
T6 construct: endogenous in cells; host or cells: HeLa cell extract
T6 sequence (Q9UNK9 1-670): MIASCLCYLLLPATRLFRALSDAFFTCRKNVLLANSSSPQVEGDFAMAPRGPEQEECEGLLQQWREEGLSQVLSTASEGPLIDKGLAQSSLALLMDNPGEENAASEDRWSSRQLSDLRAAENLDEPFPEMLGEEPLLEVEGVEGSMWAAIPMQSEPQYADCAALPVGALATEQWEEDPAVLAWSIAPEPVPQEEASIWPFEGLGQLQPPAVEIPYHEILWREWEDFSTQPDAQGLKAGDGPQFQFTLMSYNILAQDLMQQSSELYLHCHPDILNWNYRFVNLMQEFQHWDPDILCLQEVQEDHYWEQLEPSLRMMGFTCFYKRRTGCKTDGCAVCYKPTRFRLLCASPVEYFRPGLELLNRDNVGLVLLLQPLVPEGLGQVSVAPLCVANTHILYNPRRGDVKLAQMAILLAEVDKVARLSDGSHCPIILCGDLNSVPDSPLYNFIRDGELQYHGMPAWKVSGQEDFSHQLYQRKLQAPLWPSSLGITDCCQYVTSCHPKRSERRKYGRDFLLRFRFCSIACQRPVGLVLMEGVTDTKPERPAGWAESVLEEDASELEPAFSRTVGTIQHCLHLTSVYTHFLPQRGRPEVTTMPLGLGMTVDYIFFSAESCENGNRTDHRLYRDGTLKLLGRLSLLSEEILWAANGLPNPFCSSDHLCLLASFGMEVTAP

[7] = molecular target: T7, HeLa cell extract proteins (Homo sapiens, UniProt P67775)
T7 construct: endogenous in cells; host or cells: HeLa cell extract
T7 sequence (P67775 whole entry): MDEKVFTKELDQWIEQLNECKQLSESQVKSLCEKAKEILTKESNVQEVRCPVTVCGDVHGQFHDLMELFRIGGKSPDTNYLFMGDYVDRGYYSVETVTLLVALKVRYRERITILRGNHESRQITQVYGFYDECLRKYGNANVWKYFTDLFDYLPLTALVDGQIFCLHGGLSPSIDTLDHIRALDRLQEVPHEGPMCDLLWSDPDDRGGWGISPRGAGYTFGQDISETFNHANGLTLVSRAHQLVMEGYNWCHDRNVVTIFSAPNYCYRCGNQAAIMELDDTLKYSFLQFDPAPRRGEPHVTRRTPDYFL

[8] = molecular target: T8, HeLa cell extract proteins (Homo sapiens, UniProt P30153)
T8 construct: endogenous in cells; host or cells: HeLa cell extract
T8 sequence (P30153 whole entry): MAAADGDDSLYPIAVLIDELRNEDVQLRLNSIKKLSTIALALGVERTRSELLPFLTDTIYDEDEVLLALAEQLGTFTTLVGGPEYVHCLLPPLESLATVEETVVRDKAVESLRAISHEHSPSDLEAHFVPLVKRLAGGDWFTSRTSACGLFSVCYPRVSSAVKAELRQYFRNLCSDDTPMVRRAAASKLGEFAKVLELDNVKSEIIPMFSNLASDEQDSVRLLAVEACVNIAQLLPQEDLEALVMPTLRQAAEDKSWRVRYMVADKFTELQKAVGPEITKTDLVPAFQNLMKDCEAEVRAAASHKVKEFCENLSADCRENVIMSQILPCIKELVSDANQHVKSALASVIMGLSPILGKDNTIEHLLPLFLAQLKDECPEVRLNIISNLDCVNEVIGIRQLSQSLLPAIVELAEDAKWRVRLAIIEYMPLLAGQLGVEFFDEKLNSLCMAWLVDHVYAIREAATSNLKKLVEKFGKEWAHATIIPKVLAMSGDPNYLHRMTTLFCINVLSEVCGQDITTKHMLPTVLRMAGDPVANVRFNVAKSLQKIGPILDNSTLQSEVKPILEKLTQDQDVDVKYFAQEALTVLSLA

T1 sequence (P49336 whole entry): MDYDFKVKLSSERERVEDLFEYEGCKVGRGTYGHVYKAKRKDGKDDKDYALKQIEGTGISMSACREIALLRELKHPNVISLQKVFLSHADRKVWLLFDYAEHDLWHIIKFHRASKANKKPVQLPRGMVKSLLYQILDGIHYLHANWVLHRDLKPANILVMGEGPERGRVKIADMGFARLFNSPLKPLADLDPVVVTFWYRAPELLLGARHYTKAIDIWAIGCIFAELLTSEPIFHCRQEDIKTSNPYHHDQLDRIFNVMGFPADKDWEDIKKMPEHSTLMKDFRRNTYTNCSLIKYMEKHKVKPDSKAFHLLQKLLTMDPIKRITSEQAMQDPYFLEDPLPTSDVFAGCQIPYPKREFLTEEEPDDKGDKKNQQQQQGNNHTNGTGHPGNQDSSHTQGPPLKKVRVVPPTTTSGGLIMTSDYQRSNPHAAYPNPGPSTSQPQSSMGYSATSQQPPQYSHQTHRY

Row | SMILES | fold changes relative to vehicle control ([1]; protein CDK8, HeLa) | fold changes relative to vehicle control ([2]; HeLa, protein S100A6) | fold changes relative to vehicle control ([3]; HeLa, protein APOBEC3B) | fold changes relative to vehicle control ([4]; HeLa, protein FASTKD1) | fold changes relative to vehicle control ([5]; HeLa, protein SAPS3) | fold changes relative to vehicle control ([6]; protein ANGEL1, HeLa) | fold changes relative to vehicle control ([7]; HeLa, captured protein PPP2CA) | fold changes relative to vehicle control ([8]; HeLa, protein PPP2R1A) | fold changes relative to vehicle control ([1]; captured protein CDK8, HeLa) | fold changes relative to vehicle control ([2]; protein S100A6, HeLa) | fold changes relative to vehicle control ([4]; captured protein FASTKD1, HeLa) | fold changes relative to vehicle control ([6]; captured protein ANGEL1, HeLa) | fold changes relative to vehicle control ([7]; HeLa, protein PPP2CA) | also measured
1 | Nc1nc2c(c(=O)[nH]1)N(C=O)C(CNc1ccc(C(=O)N[C@@H](CCC(=O)O)C(=O)O)cc1)CN2 (some centres unmarked) [LEU, leucovorin] | 1.14 | 1.3 | 0.93 | 0.85 | 0.94 | 0.84 | 0.95 | 0.97 | – | – | – | – | – | –
2 | Nc1nc2[nH]cc(CCc3ccc(C(=O)N[C@@H](CCC(=O)O)C(=O)O)cc3)c2c(=O)[nH]1 [PTX, pemetrexed] | – | – | – | – | – | – | – | – | – | – | – | – | – | fold changes relative to vehicle control [1]: 0.77; fold changes relative to vehicle control [2]: 1.46; fold changes relative to vehicle control [3]: 0.89; fold changes relative to vehicle control [4]: 0.83; fold changes relative to vehicle control [5]: 0.94; fold changes relative to vehicle control [6]: 0.94; fold changes relative to vehicle control [7]: 0.93; fold changes relative to vehicle control [8]: 0.87
3 | CCCCCCOc1ccc(Cc2cnc(N)nc2N)cc1 [compound 1] | – | – | 0.92 | – | 0.96 | – | – | 0.95 | 0.96 | 1.13 | 0.96 | 1.04 | 0.87 | –
4 | CCCCCCOc1cccc(Cc2cnc(N)nc2N)c1 [compound 2] | – | – | 1.25 | – | 1.09 | – | – | 0.95 | 0.8 | 1.89 | 1.08 | 0.94 | 1.02 | –
5 | Nc1nc2cccc(-c3ccccc3)c2n1Cc1ccc(Cl)c(Cl)c1 [compound 3] | – | – | 1.01 | – | 1.11 | – | – | 0.88 | 1.03 | 0.95 | 0.98 | 0.95 | 0.91 | –
6 | NCCOCCOCC(=O)Nc1nc2ncc(CNc3ccc(C(=O)NC(CCC(=O)O)C(=O)O)cc3)nc2c(=O)[nH]1 (centres unmarked) [compound 6] | 0.9 | 1.94 | 1.02 | 0.87 | 0.88 | 1.02 | 0.91 | 0.86 | – | – | – | – | – | –
7 | NCCCNc1ccc(C(=O)NC(CCC(=O)O)C(=O)O)cc1 (centres unmarked) [compound 7] | 1.01 | 1.26 | 0.94 | 0.84 | 0.93 | 1 | 0.97 | 0.95 | – | – | – | – | – | –
